In patent US8524729B2, “Cinnamoyl derivatives and use thereof” (Sumitomo Chemical Company, Limited, priority 2003, dated 2013) one finds inhibition data, which are given here for four molecules.

The term inhibition denotes the percentage by which the read-out fell short of the control.

The nature of this test: Inhibition of the ability of TGF-β to promote transcription of a Type I collagen gene, COL-Luc luciferase reporter in normal human fetal skin fibroblasts. The class given is cell-based. The note with it: final concentration 1 μM; TGF-β added after one hour; 40 hours; normal human fetal skin fibroblast transfected with COL-Luc and pCMV-β-gal; read-out: Inhibition percentage. How it is done:
1×10^8 cells of a normal human fetal skin fibroblast (Clontech, catalogue No. CC-2509) were cultured at 37° C. overnight under 5% CO2 atmosphere. After the cultured cells were washed with a sodium phosphate buffer (hereinafter, referred to as PBS) twice, 3 ml of PBS was added thereto and the cells were scraped away the wall of a vessel using a cell scraper (Nalgen, catalogue No. 179693). The scraped cells were collected by centrifugation (1,500 rpm, 4° C., 15 min), and these were suspended in 20 ml of PBS and centrifuged again. To the resulting precipitates were added 11 ml of Solution 2 and 4.8 μl of pronase of DNA Extraction Kit (Stratagene, catalogue No. 200600). After shaken at 60° C. for 1 hour, the resulting mixture was allowed to stand in ice for 10 minutes. Then, 4 ml of Solution 3 of the kit was added to the mixture. After mixed, the mixture was allowed to stand in ice for 5 minutes and then centrifuged (3,000 rpm, 4° C., 15 min) to recover a supernatant. To the recovered supernatant was added 2 μl of RNase per 1 ml of the supernatant and the mixture was allowed to stand at 37° C. for 15 minutes. To the mixture was added 2-fold volume of ethanol. After mixed, a white thread-like substance (genomic DNA) appeared and the substance was recovered. The recovered genomic DNA was washed with 70% ethanol and then air-dried. The air-dried genomic DNA was dissolved in 500 μl of 10 mM Tris-HCl, 1 mM EDTA (pH 8.0) (hereinafter, referred to as TE).
The resulting genomic DNA solution (the amount equivalent to 1 μg of genomic DNA), each 1 μl ([…]) of an oligonucleotide consisting of the nucleotide sequence represented by SEQ ID No:1 and an oligonucleotide consisting of the nucleotide sequence represented by SEQ ID No: 2, 29 μL of distilled water, 5 μl of the buffer attached to TaKaRa LA Taq (TAKARA SHUZO, catalogue No. RR002A), 5 μL of a Mg^2+ solution, 5 μL of a dNTP mixture and 0.5 μl of TaKaRa LA Taq (TAKARA SHUZO, catalogue No. RR002A) were mixed. After the resulting mixed solution was incubated at 94° C. for 5 minutes, the mixed solution was subjected to 30 cycles, in which one cycle consists of incubation at 94° C. for 1 minute, at 60° C. for 1 minute and then at 72° C. for 1 minute. The mixed solution was electrophoresed on a 2% agarose gel to recover about 0.5 kb of a DNA. The recovered DNA was treated with phenol/chloroform and then precipitated with ethanol to recover the DNA. The resulting DNA was dissolved in ultrapure water. To this solution were added 2.5 μl of NheI and 2.5 μl of HindIII, and then incubated at 37° C. for 3 hours. Then, the solution was electrophoresed on a 2% agarose gel to recover […] of a DNA. The recovered DNA was precipitated with ethanol to recover again the DNA (hereinafter, referred to as the collagen promoter DNA). […]
A general note: Reporter assays use an easily measured gene product as a stand-in for the process of interest.
`COC1=C(C(=O)C=Cc2ccc(OC(F)(F)F)c(Cl)c2)COC(C)=C1` [Compound No. (2a-17), 4-methoxy-3-[3-[3-chloro-4-(trifluoromethoxy)phenyl]-1-oxo-2-propenyl]-6-methyl-2H-pyran]: the inhibition at 1 µM was not below 70%.

Regarding `COc1c(C(=O)C=Cc2ccc(OC(F)(F)F)c(Cl)c2)c(=O)oc2ccccc12` [Compound No. (2c-17), 4-methoxy-3-[3-[3-chloro-4-(trifluoromethoxy)phenyl]-1-oxo-2-propenyl]-2H-1-benzopyran-2-one], the inhibition at 1 µM is not below 70%.

With `O=C(C=Cc1ccc(OC(F)(F)F)c(Cl)c1)c1c(O)c2ccccc2[nH]c1=O` [Compound No. (3c-32), 4-hydroxy-3-[3-[3-chloro-4-(trifluoromethoxy)phenyl]-1-oxo-2-propenyl]-2(1H)-quinolinone], the inhibition at 1 µM was not below 70%.

`Cc1cc(O)c(C(=O)C=Cc2ccc(OC(F)(F)F)c(Cl)c2)c(=O)[nH]1` [Compound No. (3a-32), 4-hydroxy-3-[3-[3-chloro-4-(trifluoromethoxy)phenyl]-1-oxo-2-propenyl]-6-methyl-2(1H)-pyridinone]: the inhibition at 1 µM is not below 70%.
